# Results published in patent publication US20130165426A1, “IMIDAZOPYRIDINE, IMIDAZOPYRIMIDINE AND IMIDAZOPYRAZINE DERIVATIVES AS MELANOCORTIN-4 RECEPTOR MODULATORS” (UNIVERSITÉ DE MONTRÉAL, priority 2010, published 2013).
# Biological target: T1, wild-type human melanocortin 4 receptor (WT-hMC4R) (Homo sapiens, UniProt P32245)
# T1 construct: expressed in transfected cells
# Assay: Cyclic AMP assay (HTRF), antagonist competition against NDP-α-MSH
# Format: cell-based
# Conditions: HEK293T cells stably expressing WT-hMC4R; inhibition of response to 4 nM NDP-α-MSH; cAMP
# Description: The general procedures described above were used to prepare the examples described below. Reported HPLC retention time are for reverse-phase HPLC (Agilent, 1200 series) using the conditions reported above (See “General” section). Mass spectra were recorded on a 6210 G1969A LC/MSD TOF spectrometer from Agilent Technologies using the LC conditions reported above (See “General” section). IC50 values were obtained using the cAMP assay described below.
# IC50 value is the half maximal concentration of the tested compound to inhibit half of the maximal response of the agonist NDP-α-MSH. It is a measurement of the antagonist compound potency.
# Intracellular cyclic 3′-5′ adenosine monophosphate (cAMP) accumulation was measured using a competitive immunoassay based on HTRF (Homogeneous Time-Resolved Fluorescence) technology (cAMP dynamic-2, Cis-Bio).
# HEK293T stable cell line expressing double-tagged WT-hMC4R construct were collected and washed in cAMP buffer (1×D-PBS pH 7.4, 0.1% glucose). 40,000 cells/well were then dispensed in 96-well plates in cAMP buffer [1×D-PBS, 1% BSA, 0.1% Glucose, 0.75 mM 3-isobutyl-1-methyl-xanthine (IBMX, Sigma)] and incubated either for antagonist competition assay: 1 hour at 37° C. with various concentrations of compound [0.01 nM-10 μM] followed by 30 min incubation at 37° C. with 4 nM of NDP-α-MSH (Sigma) or for agonist assay: 1 hour at 37° C. with various concentrations of compound [0.01 nM-10 μM]. 10,000 cells were transferred in 384-well plates, lysed and incubated with cAMP labeled with the dye d2 and anti-cAMP M-Antidody labeled with Cryptate following the manufacturer's protocol.
# Reading of HTRF signal was performed on Artemis TR-FRET plate reader (Cosmo Bio).
# All curve fitting was conducted using non-linear regression analyses from PRISM (version 4.0c, GraphPad Inc.) and the determination of Rmax and EC50 or IC50 parameters were obtained from sigmoidal dose-response phase (variable slope) equation.
# A cDNA encoding a wild-type human MC4R with a 3 tandem copies of Hemaglutinine (HA) epitote sequence from UMR cDNA resource center was modified using known techniques in the art (e.g., PCR, cloning) to fused in frame at the C-terminal a venus-Yellow Fluorescent Protein (YFP) cDNA.
# The resultant cDNA was then subcloned in eukaryotic expression vector, e.g. pcDNA 3.1(+) (Invitrogen).
# The double tagged WT-hMC4R was transfected in HEK293T cells with lipofectamine (Invitrogen) following the manufacturer's instructions and permanently transfected clonal cell lines were selected by resistance to the neomycin analog G418.
# HEK293T stable cell line expressing wild-type human melanocortin 4 receptor (WT-hMC4R) containing an N-terminal 3×HA epitope tag and an intracellular C-terminal venus-yellow fluorescent protein (v-YFP) were maintained at 37° C. in humidified air containing 5% CO2 in Dulbecoo's modified Eagle's medium (DMEM) supplemented with 10% fetal bovine serum (FBS), 100 U/ml penicillin/streptomycin (DMEM complete/10% FBS). Cells were generally at 70%-80% confluence on the day of assay.
# T1 sequence (P32245 whole entry): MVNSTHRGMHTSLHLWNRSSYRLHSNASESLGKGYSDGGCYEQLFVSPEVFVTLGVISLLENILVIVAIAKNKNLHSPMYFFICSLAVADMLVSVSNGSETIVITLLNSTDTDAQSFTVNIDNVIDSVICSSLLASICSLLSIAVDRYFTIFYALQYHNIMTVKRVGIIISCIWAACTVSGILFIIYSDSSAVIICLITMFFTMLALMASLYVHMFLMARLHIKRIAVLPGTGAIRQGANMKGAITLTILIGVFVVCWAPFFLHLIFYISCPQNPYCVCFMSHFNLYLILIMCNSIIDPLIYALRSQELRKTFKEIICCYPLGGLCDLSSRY
row,Compound,IC50
1,"COc1ccc(Nc2nc3ccc(C(=O)N4CC(C)CC(C)C4)nc3n2CCCN2CCCCC2)cc1 (stereo not shown) [Cpd 2, (3,5-dimethylpiperidin-1-yl)(2-((4-methoxyphenyl)amino)-3-(3-(piperidin-1-yl)propyl)-3H-imidazo[4,5-b]pyridin-5-yl)methanone]",1000 to 15000 nM
2,"CCCCN(CCCC)C(=O)c1ccc2nc(C)n(CCCN3CCCCC3)c2n1 [Cpd 3, N,N-dibutyl-2-methyl-3-(3-(piperidin-1-yl)propyl)-3H-imidazo[4,5-b]pyridine-5-carboxamide]",1000 to 15000 nM
3,"CCCCN(CCCC)C(=O)c1ccc2nc(-c3cccc(C#N)c3)n(CCCN3CCCCC3)c2n1 [Cpd 4, N,N-dibutyl-2-(3-cyanophenyl)-3-(3-(piperidin-1-yl)propyl)-3H-imidazo[4,5-b]pyridine-5-carboxamide]",1000 to 15000 nM
4,"COc1ccc(Nc2nc3ccc(-c4cc5ccccc5n4C(=O)OC(C)(C)C)nc3n2CCCN2CCCCC2)cc1 [Cpd 6, tert-butyl 2-(2-((4-methoxyphenyl)amino)-3-(3-(piperidin-1-yl)propyl)-3H-imidazo[4,5-b]pyridin-5-yl)-1H-indole-1-carboxylate]",1000 to 15000 nM
5,CCN(CCOC)C(=O)c1ccc2nc(Nc3ccc(OC)cc3)n(CCCN3CCCCC3)c2n1 [Cpd 7],1000 to 15000 nM
6,CCCCN(CCCC)C(=O)c1ccc2nc(NC(=O)c3ccccc3)n(CCCN3CCCCC3)c2n1 [Cpd 9],1000 to 15000 nM
7,CCCCN(CCCC)C(=O)c1ccc2nc(Nc3ccccc3Br)n(CCCN3CCCCC3)c2n1 [Cpd 11],1000 to 15000 nM
8,COCCN(CCOC)C(=O)c1ccc2nc(Nc3ccc(OC)cc3)n(CCCN3CCCCC3)c2n1 [Cpd 17],1000 to 15000 nM
9,COc1ccc(Nc2nc3ccc(C(=O)N4CC5CCC(CC5)C4)nc3n2CCCN2CCCCC2)cc1 [Cpd 19],1000 to 15000 nM
10,CCCCN(CC#N)C(=O)c1ccc2nc(Nc3ccc(OC)cc3)n(CCCN3CCCCC3)c2n1 [Cpd 20],1000 to 15000 nM
11,COc1ccc(Nc2nc3ccc(C(=O)N4CCCCCC4)nc3n2CCCN2CCCCC2)cc1 [Cpd 21],1000 to 15000 nM
12,CCC1CCC(C)N(C(=O)c2ccc3nc(Nc4ccc(OC)cc4)n(CCCN4CCCCC4)c3n2)C1 (stereo not shown) [Cpd 22],1000 to 15000 nM
13,COc1ccc(Nc2nc3ccc(C(=O)N4CCCC5CCCCC54)nc3n2CCCN2CCCCC2)cc1 (stereo not shown) [Cpd 23],1000 to 15000 nM
14,CCCCN(CCCC)C(=O)c1ccc2nc(Nc3ccc(OC)cc3)n(C3CCN(Cc4ccccc4)CC3)c2n1 [Cpd 26],1000 to 15000 nM
15,COc1ccc(Nc2nc3ccc(C(=O)N(CCC(C)C)CCC(C)C)nc3n2C2CCN(Cc3ccccc3)CC2)cc1 [Cpd 27],1000 to 15000 nM
16,CCCCN(CCCC)Cc1ccc2nc(Nc3ccc(OC)cc3)n(CCCN3CCCCC3C)c2n1 (stereo not shown) [Cpd 28],1000 to 15000 nM
17,CCCCN(CCCC)C(=O)c1ccc2nc(Nc3ccc(OC)cc3)n(CC(C)(C)CN(C)C)c2n1 [Cpd 29],1000 to 15000 nM
18,CCCCN(CCCC)C(=O)c1ccc2nc(NC(C)C)n(CCCN3CCCCC3)c2n1 [Cpd 34],1000 to 15000 nM
19,CCCCN(CCCC)C(=O)c1cnc2nc(Nc3ccc(OC)cc3)n(CCCN3CCCCC3)c2c1 [Cpd 38],1000 to 15000 nM
20,CCCCN(CCCC)C(=O)c1ccc2nc(NC(=O)OCC)n(CCCN3CCCCC3)c2n1 [Cpd 39],1000 to 15000 nM
21,CCCCN(CCCC)C(=O)c1ccc2nc(N)n(CCCN3CCCCC3)c2n1 [Cpd 40],1000 to 15000 nM
22,C=C(C)CNc1nc2ccc(C(=O)N(CCCC)CCCC)nc2n1CCCN1CCCCC1 [Cpd 41],1000 to 15000 nM
23,CCCCN(CCCC)C(=O)c1ccc2nc(-c3cc(F)ccc3Br)n(CCCN3CCCCC3)c2n1 [Cpd 42],1000 to 15000 nM
24,CCCCN(CCCC)C(=O)c1ccc2nc(-c3ccc(Br)cc3)n(CCCN3CCCCC3)c2n1 [Cpd 43],1000 to 15000 nM
25,CCCCN(CCCC)C(=O)c1cc2c(cn1)nc(Nc1ccc(C)cc1)n2CCCN1CCCCC1 [Cpd 53],100 to 1000 nM
26,COc1ccc(-c2nc3cnc(C(=O)N(CCC(C)C)CCC(C)C)nc3n2CCCN2CCCCC2)cc1 [Cpd 54],100 to 1000 nM
27,CCCCN(CCCC)C(=O)c1ccc(Nc2nc3ccc(C(=O)N(CCCC)CCCC)nc3n2CCCN2CCCCC2)cc1 [Cpd 55],100 to 1000 nM
28,CCCCN(CCCC)C(=O)c1ccc2nc(Nc3ccc(C(=O)N(C)C)cc3)n(CCCN3CCCCC3)c2n1 [Cpd 56],100 to 1000 nM
29,CCCCN(CCCC)C(=O)c1ccc2nc(Nc3ccc(C(=O)N4CCCCC4)cc3)n(CCCN3CCCCC3)c2n1 [Cpd 57],100 to 1000 nM
30,CCCCN(CCCC)C(=O)c1ccc2nc(Nc3ccc(C(=O)N4CCN(C)CC4)cc3)n(CCCN3CCCCC3)c2n1 [Cpd 58],100 to 1000 nM

# Results, then the compound that gave them:
row,IC50,Compound
1,< 100 nM,CCCCN(CCCC)C(=O)c1ccc2nc(Nc3ccc(OC)cc3)n(CCCN3CCCCC3)c2n1 [Cpd 1]
2,100 to 1000 nM,"CCCCN(CCCC)C(=O)c1ccc2nc(-c3csc4ccccc34)n(CCCN3CCCCC3)c2n1 [Cpd 5, 2-(benzo[b]thiophen-3-yl)-N,N-dibutyl-3-(3-(piperidin-1-yl)propyl)-3H-imidazo[4,5-b]pyridine-5-carboxamide]"
3,< 100 nM,CCCCN(CCCC)C(=O)c1ccc2nc(Nc3ccccc3)n(CCCN3CCCCC3)c2n1 [Cpd 8]
4,100 to 1000 nM,CCCCN(CCCC)C(=O)c1ccc2nc(NCc3ccccc3)n(CCCN3CCCCC3)c2n1 [Cpd 10]
5,100 to 1000 nM,COc1ccc(Nc2nc3ccc(C(=O)N(CC(C)C)CC(C)C)nc3n2CCCN2CCCCC2)cc1 [Cpd 12]
6,100 to 1000 nM,CCCN(CCC)C(=O)c1ccc2nc(Nc3ccc(OC)cc3)n(CCCN3CCCCC3)c2n1 [Cpd 13]
7,< 100 nM,CCCCCN(CCCCC)C(=O)c1ccc2nc(Nc3ccc(OC)cc3)n(CCCN3CCCCC3)c2n1 [Cpd 14]
8,100 to 1000 nM,CCC(C)N(C(=O)c1ccc2nc(Nc3ccc(OC)cc3)n(CCCN3CCCCC3)c2n1)C(C)CC (stereo not shown) [Cpd 15]
9,< 100 nM,COc1ccc(Nc2nc3ccc(C(=O)N(CCC(C)C)CCC(C)C)nc3n2CCCN2CCCCC2)cc1 [Cpd 16]
10,< 100 nM,CCCCN(CCCC)C(=O)c1ccc2nc(Nc3ccc(OC)cc3)n(CCCN3CCCCC3C)c2n1 (stereo not shown) [Cpd 18]
11,100 to 1000 nM,CCCCN(CCC)C(=O)c1ccc2nc(Nc3ccc(OC)cc3)n(CCCN3CCCCC3)c2n1 [Cpd 24]
12,100 to 1000 nM,CCCN(C(=O)c1ccc2nc(Nc3ccc(OC)cc3)n(CCCN3CCCCC3)c2n1)C(C)CC (stereo not shown) [Cpd 25]
13,< 100 nM,COc1ccc(Nc2nc3ccc(C(=O)N(CCC4CC4)CCC4CC4)nc3n2CCCN2CCCCC2)cc1 [Cpd 30]
14,100 to 1000 nM,CCCCN(CCCC)C(=O)c1cc2c(cn1)nc(Nc1ccc(OC)cc1)n2CCCN1CCCCC1 [Cpd 31]
15,< 100 nM,CCCCN(CCCC)C(=O)c1ccc2nc(Nc3ccc(C(C)=O)cc3)n(CCCN3CCCCC3)c2n1 [Cpd 32]
16,100 to 1000 nM,CCCCN(CCCC)C(=O)c1ccc2nc(Nc3ccc(CC)cc3)n(CCCN3CCCCC3)c2n1 [Cpd 33]
17,< 100 nM,CCCCN(CCCC)C(=O)c1ccc2nc(Nc3cccnc3)n(CCCN3CCCCC3)c2n1 [Cpd 35]
18,< 100 nM,CCCCCN(CCCCC)C(=O)c1cc2c(cn1)nc(Nc1ccc(OC)cc1)n2CCCN1CCCCC1 [Cpd 36]
19,< 100 nM,COc1ccc(Nc2nc3cnc(C(=O)N(CCC(C)C)CCC(C)C)cc3n2CCCN2CCCCC2)cc1 [Cpd 37]
20,100 to 1000 nM,CCCCN(CCCC)C(=O)c1ccc2nc(-c3cc(Br)ccc3OC)n(CCCN3CCCCC3)c2n1 [Cpd 44]
21,100 to 1000 nM,CCCCN(CCCC)C(=O)c1ccc2nc(Nc3cccc4ccccc34)n(CCCN3CCCCC3)c2n1 [Cpd 45]
22,< 100 nM,CCCCN(CCCC)C(=O)c1ccc2nc(Nc3ccc(C)cc3)n(CCCN3CCCCC3)c2n1 [Cpd 46]
23,100 to 1000 nM,CCCCN(CCCC)C(=O)c1nc(O)c2nc(-c3ccc(OC)cc3)n(CCCN3CCCCC3)c2n1 [Cpd 47]
24,< 100 nM,CCCCN(CCCC)C(=O)c1ccc2nc(Nc3ccc(C(=O)OC)cc3)n(CCCN3CCCCC3)c2n1 [Cpd 48]
25,100 to 1000 nM,CCCCN(CCCC)C(=O)c1ccc2nc(NC3CCCCC3)n(CCCN3CCCCC3)c2n1 [Cpd 49]
26,100 to 1000 nM,CCCCN(CCCC)C(=O)c1cnc2nc(Nc3ccc(OC)cc3)n(CCCN3CCCCC3)c2n1 [Cpd 50]
27,100 to 1000 nM,CCCCN(CCCC)C(=O)c1cc2c(cn1)nc(Nc1ccccc1)n2CCCN1CCCCC1 [Cpd 51]
28,< 100 nM,CCCCN(CCCC)C(=O)c1cc2c(cn1)nc(NCc1ccccc1)n2CCCN1CCCCC1 [Cpd 52]
